From patent US8772512B2, “Crystallisation process for 1-(β-D-glucopyranosyl)-4-methyl-3-[5-(4-fluorophenyl)-2-thienylmethyl] benzene” (Janssen Pharmaceutica NV, priority 2009, dated 2014)

Legend:
[1] = Particle size distribution by laser diffraction (Malvern Mastersizer 2000, wet dispersion); assay type: physicochemical; conditions: Fraunhofer optical model, hemihydrate; for particle size distribution D10: d10 cumulative undersize by volume, dispersed in 1% (w/v) polysorbate 20 in water; for particle size distribution D50: d50 cumulative undersize by volume; for particle size distribution D90: d90 cumulative undersize by volume
Method: Particle size of original compound (I) and crystallised compound (I) according to the procedure of Example 1 have been determined with laser diffraction (LD). For this purpose, a Malvern Mastersizer 2000 laser diffractometer (Malvern, U.K.) has been used, which was equipped with a Hydro 2000S wet dispersion module. Prior to analysis, an amount of ca. 200 mg of the product was dispersed in 1% (w/v) polysorbate 20 in water by means of vigorous shaking for 30 seconds. A representative portion of this dispersion was than added to the reservoir of the wet dispersion module, which for this purpose was filled with water. The liquid medium was circulated via the measurement cell of the instrument, to allow measurement of the product specific scattering pattern. Based on the scattering intensities as measured under different angles relative to the incoming collimated laser beam, for compound (I) the particle size distribution (PSD) by volume was calculated based on the Fraunhofer optical model. For the PSD, the d10, d50 and d90 cumulative undersize were reported as the relevant statistical descriptors.

[2] = Bulk and tap density (25 g in 100-ml graduated cylinder; 500 taps); assay type: physicochemical; conditions: for Bulk density: 25 g, volume in 100-ml graduated cylinder; for Bulk density / Tap density: hemihydrate; for Tap density: after 500 taps
Method: The bulk and tap densities of the crystallised 1-(β-D-glucopyranosyl)-4-methyl-3-[5-(4-fluorophenyl)-2-thienylmethyl] benzene hemihydrate were measured. The bulk density of 25 g of compound (I) was measured by recording its volume in a 100-ml graduated cylinder. Tap density volume was then measured after 500 taps.

particle size distribution D10 [1] [μm] | particle size distribution D50 [1] [μm] | particle size distribution D90 [1] [μm] | Bulk density [2] [g/mL] | Tap density [2] [g/mL] | bulk density higher than for original compound (I) ([2]; crystallised according to Example 1 versus original compound (I)) [%] | Structure (SMILES)
20 | 49 | 102 | 0.35 | 0.54 | 20 | Cc1ccc([C@@H]2O[C@H](CO)[C@@H](O)[C@H](O)[C@H]2O)cc1Cc1ccc(-c2ccc(F)cc2)s1 [crystallised compound (I), 1-(β-D-glucopyranosyl)-4-methyl-3-[5-(4-fluorophenyl)-2-thienylmethyl] benzene hemihydrate]
14 | 43 | 116 | 0.28 | 0.48 |  | Cc1ccc([C@@H]2O[C@H](CO)[C@@H](O)[C@H](O)[C@H]2O)cc1Cc1ccc(-c2ccc(F)cc2)s1 [original compound (I), 1-(β-D-glucopyranosyl)-4-methyl-3-[5-(4-fluorophenyl)-2-thienylmethyl] benzene hemihydrate]
